Laboratory results published in patent US11407736B2 (priority 2019, dated 2022).
pIC50: −log10 of the molar value. Read-outs that look alike come from different tables or passages of the source.

Experiments:
RIPK1 = RIPK1 (Homo sapiens (Human), UniProt Q13546); assay: RIPK1 ADP-Glo biochemical kinase assay
Experimental: The final reaction volume was 5.0ul.
Adding 5 μl of ADP-Glo™ terminated the reaction.

L929 cells = assay: L929 cell necroptosis assay (TNFa + zVAD, CellTiter-Glo); format: cell-based, murine; settings: Mus musculus, L929, L929 cells, TNFa + zVAD; read-out: L929-CTG-recovery, L929, TNFa + zVAD (IC50)
Outline: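 Necroptosis was read as CellTiter-Glo luminescence 18 hours after TNFa stimulation at 37° C, 5% CO2. Prior to that, L929 cells (10K/well, plated 18 h) received fresh medium with 40 uM zVAD-fmk plus 4-fold serially diluted compound.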

U937 cells = assay: U937 cell necroptosis assay (TNFa + zVAD, CellTiter-Glo); format: cell-based, human; settings: Homo sapiens, U-937, U937 cells, TNFa + zVAD; read-out: U937 Zvad TNF CTG Recovery, U937, TNFa + zVAD (IC50)
Outline: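 Necroptosis was induced with TNFa at 2 ng/mL final for 18 h at 37 °C, following 1 h compound pre-incubation in the presence of zVAD-fmk (60 uM for U937 plating medium, 40 uM for L929 medium). Luminescent CellTiter-Glo signal gave relative cell survival.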

[1] = read-out: RIPK1 ADP-Glo Kinase (IC50)

Sequence of RIPK1 (Q13546 whole entry, species assumed): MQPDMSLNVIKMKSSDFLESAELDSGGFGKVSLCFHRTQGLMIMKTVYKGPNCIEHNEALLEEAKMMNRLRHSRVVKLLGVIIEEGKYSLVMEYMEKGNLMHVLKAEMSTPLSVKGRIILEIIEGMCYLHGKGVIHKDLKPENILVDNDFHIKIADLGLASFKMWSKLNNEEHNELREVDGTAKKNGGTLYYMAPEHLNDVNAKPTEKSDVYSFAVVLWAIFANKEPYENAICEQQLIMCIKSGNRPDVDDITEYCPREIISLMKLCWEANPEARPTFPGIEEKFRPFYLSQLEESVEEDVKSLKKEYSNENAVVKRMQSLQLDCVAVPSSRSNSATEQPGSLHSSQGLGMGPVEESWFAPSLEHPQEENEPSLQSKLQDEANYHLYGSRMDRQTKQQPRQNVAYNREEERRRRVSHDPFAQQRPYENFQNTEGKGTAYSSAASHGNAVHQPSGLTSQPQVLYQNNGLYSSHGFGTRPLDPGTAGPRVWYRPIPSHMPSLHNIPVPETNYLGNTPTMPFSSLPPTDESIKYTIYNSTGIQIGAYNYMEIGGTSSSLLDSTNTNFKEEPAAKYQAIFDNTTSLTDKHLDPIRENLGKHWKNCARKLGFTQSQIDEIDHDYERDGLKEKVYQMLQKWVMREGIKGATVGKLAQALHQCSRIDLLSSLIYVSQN

## CN1C(=O)[C@@H](NC(=O)c2n[nH]c(Cc3ccccc3)n2)COc2ccc(C#CC3(O)CCCC3)cc21 [Compound I-53, (S)-5-benzyl-N-(7-((1-hydroxycyclopentyl)ethynyl)-5-methyl-4-oxo-2,3,4,5-tetrahydrobenzo[b][1,4]oxazepin-3-yl)-1H-1,2,4-triazole-3-carboxamide]
RIPK1; [1]
  pIC50: 7.47
L929 cells
  pIC50: 9.30
U937 cells
  pIC50: 8.74

## CN1C(=O)[C@@H](NC(=O)c2ncn(Cc3ccccc3)n2)COc2ccc(C#CC3(O)CCOCC3)cc21 [Compound I-54, (S)-1-benzyl-N-(7-((4-hydroxytetrahydro-2H-pyran-4-yl)ethynyl)-5-methyl-4-oxo-2,3,4,5-tetrahydrobenzo[b][1,4]oxazepin-3-yl)-1H-1,2,4-triazole-3-carboxamide]
RIPK1; [1]
  pIC50: 7.57
L929 cells
  pIC50: 9.52
U937 cells
  pIC50: 9.05

## CN1C(=O)[C@@H](NC(=O)c2ncn(Cc3ccccc3)n2)COc2ccc(CCC(=O)NC3CC3)cc21 [Compound I-26, (S)-1-benzyl-N-(7-(3-(cyclopropylamino)-3-oxopropyl)-5-methyl-4-oxo-2,3,4,5-tetrahydrobenzo[b][1,4]oxazepin-3-yl)-1H-1,2,4-triazole-3-carboxamide]
RIPK1; [1]
  pIC50: 7.18
L929 cells
  pIC50: 6.21
U937 cells
  pIC50: 8.36

## CN1C(=O)[C@@H](NC(=O)c2n[nH]c(Cc3ccccc3)n2)COc2cc(CN3CCn4nc(C(F)(F)F)nc4C3)ccc21 [Compound I-66, (S)-5-benzyl-N-(5-methyl-4-oxo-8-((2-(trifluoromethyl)-5,6-dihydro-[1,2,4]triazolo[1,5-a]pyrazin-7(8H)-yl)methyl)-2,3,4,5-tetrahydrobenzo[b][1,4]oxazepin-3-yl)-1H-1,2,4-triazole-3-carboxamide]
RIPK1; [1]
  pIC50: 7.10
L929 cells
  pIC50: 7.02
U937 cells
  pIC50: 6.72

## CN1C(=O)[C@@H](NC(=O)n2cc(Cc3ccc(F)cc3)cn2)COc2ccc(C#CC3(O)CC4(COC4)C3)cc21 [Compound I-225, (S)-4-(4-Fluorobenzyl)-N-(7-((6-hydroxy-2-oxaspiro[3.3]heptan-6-yl)ethynyl)-5-methyl-4-oxo-2,3,4,5-tetrahydrobenzo[b][1,4]oxazepin-3-yl)-1H-pyrazole-1-carboxamide]
RIPK1; [1]
  pIC50: 7.64
L929 cells
  pIC50: 7.49
U937 cells
  pIC50: 9.30

## CN1C(=O)[C@@H](NC(=O)c2n[nH]c(Cc3ccccc3F)n2)COc2ccc(C#CC(C)(C)C)cc21 [Compound I-89, (S)—N-(7-(3,3-dimethylbut-1-yn-1-yl)-5-methyl-4-oxo-2,3,4,5-tetrahydrobenzo[b][1,4]oxazepin-3-yl)-5-(2-fluorobenzyl)-1H-1,2,4-triazole-3-carboxamide]
RIPK1; [1]
  pIC50: 7.28
L929 cells
  pIC50: 9.15
U937 cells
  pIC50: 8.35

## CC(C)CCc1ccc2c(c1)N(C)C(=O)[C@@H](NC(=O)c1n[nH]c(Cc3ccccc3)n1)CO2 [Compound I-60, (S)-5-benzyl-N-(7-isopentyl-5-methyl-4-oxo-2,3,4,5-tetrahydrobenzo[b][1,4]oxazepin-3-yl)-1H-1,2,4-triazole-3-carboxamide]
RIPK1; [1]
  pIC50: 7.19
L929 cells
  pIC50: 8.62
U937 cells
  pIC50: 8.32

## CN1C(=O)[C@@H](NC(=O)c2n[nH]c(Cc3ccccc3)n2)COc2ccc(C#CCN3CCOCC3)cc21 [Compound I-96, (S)-5-benzyl-N-(5-methyl-7-(3-morpholinoprop-1-yn-1-yl)-4-oxo-2,3,4,5-tetrahydrobenzo[b][1,4]oxazepin-3-yl)-1H-1,2,4-triazole-3-carboxamide]
RIPK1; [1]
  pIC50: 7.50
L929 cells
  pIC50: 9.10
U937 cells
  pIC50: 8.51

## CN1C(=O)[C@@H](NC(=O)c2cc(Oc3ccccc3)ccn2)COc2ccc(C#CC(C)(C)CO)cc21 [Compound I-109, (S)—N-(7-(4-hydroxy-3,3-dimethylbut-1-yn-1-yl)-5-methyl-4-oxo-2,3,4,5-tetrahydrobenzo[b][1,4]oxazepin-3-yl)-4-phenoxypicolinamide]
RIPK1
  pIC50: 7.49
L929 cells
  pIC50: 7.61
U937 cells
  pIC50: 9.40

## CN1C(=O)[C@@H](NC(=O)c2cc(Cc3ccc(F)cc3)ccn2)COc2ccc(C#CC(C)(C)O)cc21 [Compound I-125, (S)-4-(4-fluorobenzyl)-N-(7-(3-hydroxy-3-methylbut-1-yn-1-yl)-5-methyl-4-oxo-2,3,4,5-tetrahydrobenzo[b][1,4]oxazepin-3-yl)picolinamide]
RIPK1; [1]
  pIC50: 7.58
L929 cells
  pIC50: 6.94
U937 cells
  pIC50: 8.01

## CN1C(=O)[C@@H](NC(=O)c2cc(Oc3cccc(F)c3)ccn2)COc2ccc(C#CC3(O)COC3)cc21 [Compound I-115, (S)-4-(3-fluorophenoxy)-N-(7-((3-hydroxyoxetan-3-yl)ethynyl)-5-methyl-4-oxo-2,3,4,5-tetrahydrobenzo[b][1,4]oxazepin-3-yl)picolinamide]
RIPK1; [1]
  pIC50: 7.62
L929 cells
  pIC50: 7.31
U937 cells
  pIC50: 9.10

## CCN(C(=O)c1n[nH]c(Cc2ccccc2)n1)[C@H]1COc2ccc(C#CC(C)(C)O)cc2N(C)C1=O [Compound I-86, (S)-5-benzyl-N-ethyl-N-(7-(3-hydroxy-3-methylbut-1-yn-1-yl)-5-methyl-4-oxo-2,3,4,5-tetrahydrobenzo[b][1,4]oxazepin-3-yl)-1H-1,2,4-triazole-3-carboxamide]
RIPK1; [1]
  pIC50: 6.21
L929 cells
  pIC50: 9.22
U937 cells
  pIC50: 8.39

## CN1C(=O)[C@@H](NC(=O)c2cc(Oc3ccccc3)ccn2)COc2ccc(C#CC(C)(C)N3CCCC3)cc21 [Compound I-210, (S)—N-(5-Methyl-7-(3-methyl-3-(pyrrolidin-1-yl)but-1-yn-1-yl)-4-oxo-2,3,4,5-tetrahydrobenzo[b][1,4]oxazepin-3-yl)-4-phenoxypicolinamide]
RIPK1; [1]
  pIC50: 7.54
L929 cells
  pIC50: 6.33
U937 cells
  pIC50: 8.38

## CN1C(=O)[C@@H](NC(=O)c2cc(Oc3c(F)cccc3F)ccn2)COc2ccc(C#CC(C)(C)O)cc21 [Compound I-118, (S)-4-(2,6-difluorophenoxy)-N-(7-(3-hydroxy-3-methylbut-1-yn-1-yl)-5-methyl-4-oxo-2,3,4,5-tetrahydrobenzo[b][1,4]oxazepin-3-yl)picolinamide]
RIPK1; [1]
  pIC50: 7.56
L929 cells
  pIC50: 7.08
U937 cells
  pIC50: 9.00

## CN1C(=O)[C@@H](NC(=O)c2n[nH]c(Cc3ccccc3)n2)COc2cc(C#CC(C)(C)O)ccc21 [Compound I-63, (S)-5-benzyl-N-(8-(3-hydroxy-3-methylbut-1-yn-1-yl)-5-methyl-4-oxo-2,3,4,5-tetrahydrobenzo[b][1,4]oxazepin-3-yl)-1H-1,2,4-triazole-3-carboxamide]
RIPK1; [1]
  pIC50: 7.52
L929 cells
  pIC50: 9.52
U937 cells
  pIC50: 9.00

## CC(=O)N1CC(F)(C#Cc2ccc3c(c2)N(C)C(=O)[C@@H](NC(=O)c2cc(Oc4ccccc4)ccn2)CO3)C1 [Compound I-191, (S)—N-(7-((1-acetyl-3-fluoroazetidin-3-yl)ethynyl)-5-methyl-4-oxo-2,3,4,5-tetrahydrobenzo[b][1,4]oxazepin-3-yl)-4-phenoxypicolinamide]
RIPK1; [1]
  pIC50: 7.71
L929 cells
  pIC50: 7.67
U937 cells
  pIC50: 9.52

## CN1C(=O)[C@@H](NC(=O)c2n[nH]c(Cc3ccccc3)n2)COc2ccc(C#CCCOc3ccc4ncccc4c3)cc21 [Compound I-38, (S)-5-benzyl-N-(5-methyl-4-oxo-7-(4-(quinolin-6-yloxy)but-1-yn-1-yl)-2,3,4,5-tetrahydrobenzo[b][1,4]oxazepin-3-yl)-1H-1,2,4-triazole-3-carboxamide]
RIPK1; [1]
  pIC50: 7.17
L929 cells
  pIC50: 9.30
U937 cells
  pIC50: 8.44
